One experiment concerns the target T1, PfcProRS (Plasmodium falciparum, UniProt Q8I5R7).
T1 construct: made in house; host or cells: E. coli SoluBL-21
The experiment is classed as binding. The conditions noted are these: replicates 1-3.

In a further experiment the test system is P. falciparum Dd2-2D4. Nature of the experiment: P. falciparum asexual blood stage (ABS) growth assay, SYBR Green, 72 h, wild-type parasites. Particulars: Plasmodium falciparum, DD2; SI Fig 16b; values on -log scale; read-out: ABS - Dd2-2D4 (converted). The class given is cell-based, Plasmodium falciparum.
Another experiment deals with HsProRS (Homo sapiens, UniProt P07814). As to the kind of experiment: TR-FRET ligand displacement assay with tracer MAT379 (CoraFluor-1-Halo and anti-His6 antibody formats). Particulars: for HsProRS % signal at 10 μM: no added proline/ATP (-). Details: made in house; host or cells: E. coli SoluBL-21. The class given is binding. For orientation: TR-FRET usually uses a lanthanide donor and a delayed reading to cut background.
Chain of HsProRS (P07814 996-1512): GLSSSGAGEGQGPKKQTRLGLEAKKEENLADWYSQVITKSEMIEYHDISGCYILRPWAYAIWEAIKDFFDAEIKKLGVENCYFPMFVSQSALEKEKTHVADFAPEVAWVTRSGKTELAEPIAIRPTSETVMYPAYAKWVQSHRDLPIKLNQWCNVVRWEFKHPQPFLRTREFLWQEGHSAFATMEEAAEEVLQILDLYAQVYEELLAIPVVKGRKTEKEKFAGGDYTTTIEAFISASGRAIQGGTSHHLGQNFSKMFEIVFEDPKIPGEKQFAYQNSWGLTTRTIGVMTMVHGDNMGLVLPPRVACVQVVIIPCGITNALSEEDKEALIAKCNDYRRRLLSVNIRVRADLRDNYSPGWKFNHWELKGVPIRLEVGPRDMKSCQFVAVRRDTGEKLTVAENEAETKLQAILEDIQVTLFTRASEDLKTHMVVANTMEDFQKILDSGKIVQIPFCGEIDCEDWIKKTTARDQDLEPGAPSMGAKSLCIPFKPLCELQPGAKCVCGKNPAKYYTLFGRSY

[1] abbreviates: read-out: HsProRS IC50 + 100 μM proline, + 100 μM proline.

Values joined by “and” are separate entries in the source; they are usually repeats but may differ in a detail not shown here. Equal entries are not always repeated. Where two headings read alike, the source gives them in different places.

The results in this text go back to article PMC9403976, “Elucidating the path to Plasmodium prolyl-tRNA synthetase inhibitors that overcome halofuginone resistance” (Nature Communications, 2022).

What is called IC50 is the concentration that inhibits the measured activity by half.

T1 sequence (Q8I5R7 249-746): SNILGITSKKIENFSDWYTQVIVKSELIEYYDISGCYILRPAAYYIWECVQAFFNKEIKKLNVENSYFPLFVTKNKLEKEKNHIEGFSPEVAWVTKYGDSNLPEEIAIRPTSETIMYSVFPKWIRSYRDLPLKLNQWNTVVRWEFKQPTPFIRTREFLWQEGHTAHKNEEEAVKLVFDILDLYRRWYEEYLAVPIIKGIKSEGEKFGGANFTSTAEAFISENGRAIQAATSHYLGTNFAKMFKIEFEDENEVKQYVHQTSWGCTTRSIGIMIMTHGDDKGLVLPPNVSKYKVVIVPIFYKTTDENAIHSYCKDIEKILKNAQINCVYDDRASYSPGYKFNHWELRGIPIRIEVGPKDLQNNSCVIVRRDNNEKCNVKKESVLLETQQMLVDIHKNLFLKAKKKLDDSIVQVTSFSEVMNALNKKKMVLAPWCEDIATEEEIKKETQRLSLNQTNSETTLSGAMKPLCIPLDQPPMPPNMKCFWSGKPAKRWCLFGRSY

Regarding `O=C(NC1Cc2ccccc2C1)c1nccnc1NS(=O)(=O)C1CCCCC1` [compound 50], the “Normalized response, dose-response replicates (SI Fig 14)” value (shortened to “Normalized response”) is 8.68E-01 and 9.74E-01 and 9.94E-01 on PfcProRS (Log[inhibitor] (M) -5.000); 9.83E-01 and 9.53E-01 and 9.64E-01 on PfcProRS (Log[inhibitor] (M) -5.301); 9.71E-01 and 9.90E-01 and 1.02E+00 on PfcProRS (Log[inhibitor] (M) -5.601); 1.05E+00 and 1.15E+00 and 1.14E+00 on PfcProRS (Log[inhibitor] (M) -5.904); 1.03E+00 and 9.74E-01 and 1.18E+00 on PfcProRS (Log[inhibitor] (M) -6.208); 1.04E+00 and 9.48E-01 and 1.06E+00 on PfcProRS (Log[inhibitor] (M) -6.509). Moreover, the “Normalized response” value on PfcProRS (Log[inhibitor] (M) -6.796) is 9.91E-01 and 1.03E+00 and 9.32E-01; at PfcProRS (Log[inhibitor] (M) -7.108), 9.63E-01 and 9.98E-01 and 1.15E+00; on PfcProRS (Log[inhibitor] (M) -7.409) it was 9.71E-01 and 8.81E-01 and 1.12E+00; on PfcProRS (Log[inhibitor] (M) -7.710), 9.98E-01 and 1.04E+00 and 1.13E+00; on PfcProRS (Log[inhibitor] (M) -8.000), 1.13E+00 and 9.44E-01 and 9.76E-01; on PfcProRS (Log[inhibitor] (M) -8.301) it was 8.99E-01 and 9.55E-01 and 8.96E-01. Also, the “Normalized response” value on PfcProRS (Log[inhibitor] (M) -8.602) was 9.78E-01 and 9.85E-01 and 1.02E+00; at PfcProRS (Log[inhibitor] (M) -9.000) it was 9.55E-01 (2×) and 1.01E+00; on PfcProRS (Log[inhibitor] (M) -9.301), 9.48E-01 and 9.83E-01 and 9.54E-01. Also, in the experiment on P. falciparum Dd2-2D4, the EC50 was 13 µM. The IC50 on HsProRS and on HsProRS (setting [1]) was greater than 10 µM throughout. For the same molecule, the “HsProRS % signal at 10 μM, + 100 μM proline” value on HsProRS (+ 100 μM proline) was 84.5%. Further, at HsProRS, the “HsProRS % signal at 10 μM” value is listed as 87.7%.
Regarding `CNc1nccnc1C(=O)NC1Cc2ccccc2C1` [compound 46], the “Normalized response” value at PfcProRS (Log[inhibitor] (M) -5.000) is 8.16E-01 and 6.16E-01 and 6.52E-01; at PfcProRS (Log[inhibitor] (M) -5.301), 8.98E-01 and 7.41E-01 and 8.21E-01; on PfcProRS (Log[inhibitor] (M) -5.601), 9.35E-01 and 8.99E-01 and 9.60E-01; on PfcProRS (Log[inhibitor] (M) -5.904), 1.14E+00 and 9.86E-01 and 9.79E-01; at PfcProRS (Log[inhibitor] (M) -6.208) it was 1.04E+00 and 1.02E+00 and 8.92E-01; on PfcProRS (Log[inhibitor] (M) -6.509), 1.02E+00 (2×) and 9.27E-01. For the same molecule, the “Normalized response” value on PfcProRS (Log[inhibitor] (M) -6.796) was 1.13E+00 and 1.15E+00 and 1.04E+00; on PfcProRS (Log[inhibitor] (M) -7.108), 9.45E-01 and 1.04E+00 and 8.83E-01; at PfcProRS (Log[inhibitor] (M) -7.409) it was 1.08E+00 and 9.92E-01 and 1.03E+00; on PfcProRS (Log[inhibitor] (M) -7.710) it was 9.83E-01 and 1.09E+00 and 9.75E-01; on PfcProRS (Log[inhibitor] (M) -8.000), 9.64E-01 and 1.04E+00 and 9.43E-01; at PfcProRS (Log[inhibitor] (M) -8.301), 1.03E+00 (2×) and 1.01E+00. Also, the “Normalized response” value at PfcProRS (Log[inhibitor] (M) -8.602) is 1.06E+00 and 9.77E-01 and 1.03E+00; at PfcProRS (Log[inhibitor] (M) -9.000), 9.75E-01 and 9.25E-01 and 9.98E-01; at PfcProRS (Log[inhibitor] (M) -9.301) it was 9.09E-01 and 1.02E+00 and 8.23E-01. Further, in the experiment with P. falciparum Dd2-2D4, the EC50 is 8.11 µM. The IC50 at HsProRS and on HsProRS (setting [1]) was greater than 10 µM in each case. Further, on HsProRS (+ 100 μM proline), the “HsProRS % signal at 10 μM, + 100 μM proline” value is listed as 91.7%. Also, the “HsProRS % signal at 10 μM” value on HsProRS was 97.1%.
